Data taken from ChEMBL document CHEMBL1255263, “Activity of the Diaminopyrimidine AR-709 against recently collected multidrug-resistant isolates of invasive Streptococcus pneumoniae from North America” (2008).
Converted amounts (≈) assume the structure as drawn.

Tests used:
Streptococcus pneumoniae [1] = assay: Antibacterial activity against multidrug resistant Streptococcus pneumoniae […] by CLSI microdilution susceptibility testing method; type: functional
Streptococcus pneumoniae [2] = assay: Antibacterial activity against multidrug resistant Streptococcus pneumoniae […] assessed as resistant strains by CLSI microdilution susceptibility testing method; type: functional

Row | SMILES | MIC50 (Streptococcus pneumoniae [1]) | MIC90 (Streptococcus pneumoniae [1]) | Activity (Streptococcus pneumoniae [2])
1 | COc1cc(Cc2cnc(N)nc2N)c2cc(Cc3c(C(=O)N(C)C)[nH]c4ccc(Cl)cc34)oc2c1OC | 0.25 µg/mL (≈ 0.467 µM) | 0.5 µg/mL (≈ 0.935 µM) | –
2 | CC1(C)S[C@@H]2[C@H](NC(=O)[C@H](N)c3ccc(O)cc3)C(=O)N2[C@H]1C(=O)O [AMOXICILLIN] | 2 µg/mL (≈ 5.47 µM) | 8 µg/mL (≈ 21.9 µM) | 48.2%
3 | CO/N=C(\C(=O)N[C@@H]1C(=O)N2C(C(=O)O)=C(COC(C)=O)CS[C@H]12)c1csc(N)n1 [CEFOTAXIME] | 1 µg/mL (≈ 2.2 µM) | 2 µg/mL (≈ 4.39 µM) | 41.1%
4 | CCC[C@@H]1C[C@@H](C(=O)N[C@@H]([C@H]2O[C@H](SC)[C@H](O)[C@@H](O)[C@H]2O)[C@H](C)Cl)N(C)C1 [CLINDAMYCIN] | 0.06 µg/mL (≈ 0.141 µM) | > 8 µg/mL | 34.8%
5 | C[C@H]1c2cccc(O)c2C(=O)C2=C(O)[C@]3(O)C(=O)C(C(N)=O)=C(O)[C@@H](N(C)C)[C@@H]3[C@@H](O)[C@@H]21.O [DOXYCYCLINE] | 0.12 µg/mL | 8 µg/mL | 40.6%
6 | CC[C@H]1OC(=O)[C@H](C)[C@@H](O[C@H]2C[C@@](C)(OC)[C@@H](O)[C@H](C)O2)[C@H](C)[C@@H](O[C@@H]2O[C@H](C)C[C@H](N(C)C)[C@H]2O)[C@](C)(O)C[C@@H](C)C(=O)[C@H](C)[C@@H](O)[C@]1(C)O [ERYTHROMYCIN] | 8 µg/mL (≈ 10.9 µM) | > 32 µg/mL | 83.5%
7 | C[C@H]1COc2c(N3CCN(C)CC3)c(F)cc3c(=O)c(C(=O)O)cn1c23.C[C@H]1COc2c(N3CCN(C)CC3)c(F)cc3c(=O)c(C(=O)O)cn1c23.O [LEVOFLOXACIN] | 1 µg/mL | > 8 µg/mL | 21%
8 | C[C@@H](O)[C@H]1C(=O)N2C(C(=O)O)=C(S[C@@H]3CN[C@H](C(=O)N(C)C)C3)[C@H](C)[C@H]12 [MEROPENEM] | 0.5 µg/mL (≈ 1.3 µM) | 1 µg/mL (≈ 2.61 µM) | 75.9%
9 | CC1(C)S[C@@H]2[C@H](NC(=O)Cc3ccccc3)C(=O)N2[C@H]1C(=O)O [PENICILLIN G] | 4 µg/mL (≈ 12 µM) | 4 µg/mL (≈ 12 µM) | 85.7%
